Data as given in patent US11035850B2, “Quantitative determination of nucleoside analogue drugs in genomic DNA or RNA” (THE JOHNS HOPKINS UNIVERSITY, priority 2016, dated 2021).

Tests used:
[1] = Stability of DAC, 2dC, and 5mC (LC-MS/MS); assay type: physicochemical; settings: for Digest Buffers Stability (−70° C.) (35 Days) (%): digest buffer; for Stock Stability (27 Days) (%): Stock solution in water 1 mg/mL, −20° C. printed for DAC only
Procedure: (§1) Standards and quality control (QCs) samples were prepared by adding known concentrations of analytes into blank digest matrix (all solvents used during the DNA digest except for the enzymes). All digested DNA samples, standards and QCs were prepared for analysis by adding 20 μL internal standard (5AC-^15N4, 2dC-^13C^15N2 and 5mC-d3 in water) to 100 μL of sample and vortex-mix briefly. The internal standard in the range of 5 μL, 10 μL, or 15 μL to 20 μL, 25 μL, 30 μL, or 35 μL could be added to a sample. The sample could be in the range of 85 μL, 90 μL, or 95 μL to 100 μL, 105 μL, 110 μL, or 110 μL. The samples were injected onto a LC-MS system containing a Waters Acquity UPLC (Milford, Mass.) interfaced with an AB Sciex 5500 triple quadruple mass spectrometer (Foster City, Calif.). Chromatographic separation was achieved using Thermo Hypercarb porous graphite analytical column (100×2.1 mm, 5 μm, Waltham, Mass.) running isocratic with 10 mM ammonium acetate-acetonitrile-formic acid (70:30:0.1, v/v) with a flow rate of […]. The mass spectrometer was run in positive electrospray ionization mode with follow MRM transitions: DAC: 228.9→113.0, 2dC: 228.0→112.0, 5mC: 242.0→126.0, 5AC-^15N4 (internal standard): 249.0→117.0, 2dC-^13C^15N2 (internal standard) 230.8→115.0 and 5mC-d3 (internal standard) 245.8→129.0. The calibration range was 2-400 ng/mL for DAC, 5-1,000 ng/mL for 5mC, and 50-10,000 ng/mL for 2dC. All analytes were quantified using quadratic regression with 1/x^2 weighing.
A LC-MS/MS method was developed and validated to determine DAC, 2dC, and 5mC concentrations in DNA digest matrix (FIGS. 1-3). No major interferences were observed from blank matrix (FIGS. 1 and 2). Samples can be stored as the single dephosphorylated nucleotides for up to 35 days. The method has been applied in vitro to untreated (FIG. 4) and DAC treated cells (FIG. 5).

[2] = test system: DU145 human prostate cancer cells; test: DAC incorporation into genomic DNA of DU145 cells (LC-MS/MS); assay type: cell-based
Procedure: (§2) Genomic DNA was suspended in 50 μL of HPLC grade water, and digested with 4 Units of Nuclease P1 (Sigma Aldrich) at 65° C. for 10 minutes in a digestion buffer containing 0.04 mM DFAM, 3.25 mM ammonium acetate pH 5.0, 0.5 mM zinc chloride in a final volume of 100 μL. 20 μL of 100 mM Trizma base, pH 8.5 was added and this reaction was treated with 4 Units of Alkaline Phosphatase at 37° C. for 1 hour. Following incubation, 20 μL of 300 mM ammonium acetate, pH 5.0 and 6 μL of 0.25 mM DFAM/50 mM ethylenediaminetetraacetic acid was added to stop digestion.
as §1
DU145 prostate cancer cells were cultured in RPMI-1640, supplemented with 5% fetal bovine serum (Invitrogen). DAC was dissolved in DMSO and added to the culture at varying concentrations. The same volume of DMSO was added as a control. Cells were allowed to grow for 48 hr. An independent experiment was performed in three replicates. Following cell harvest, genomic DNA isolation, digestion to single dephosphorylated nucleotides according to our described protocols, DAC and 2dC content were determined using our LC-MS/MS analytical approach.

colon tissue = test: DAC and 5mC content in genomic DNA of colon cells from mice treated with DAC; assay type: in vivo; settings: DAC 1, 2 or 5 mg/kg intraperitoneal, 10 doses (FIG. 7)
Procedure: as §2
(§3) Standards and quality control (QCs) samples were prepared by adding known concentrations of analytes into blank digest matrix (all solvents used during the DNA digest except for the enzymes). All digested DNA samples, standards and QCs were prepared for analysis by adding 20 μL internal standard (5AC-^15N4, 2dC-^13C^15N2 and 5mC-d3 in water) to 100 μL of sample and vortex-mix briefly. The internal standard in the range of 5 μL, 10 μL, or 15 μL to 20 μL, 25 μL, 30 μL, or 35 μL could be added to a sample. […] All analytes were quantified using quadratic regression with 1/x^2 weighing. […]
(§4) DAC (1, 2 or 5 mg/kg) (Sigma-Aldrich) or vehicle was administered via daily intraperitoneal injection. […] DAC, 2dC, and 5mC were measured using our LC-MS/MS analytical approach.

whole bone marrow cells = test: DAC and 5mC content in genomic DNA of bone marrow cells from mice treated with DAC; assay type: in vivo; settings: DAC 1, 2 or 5 mg/kg intraperitoneal, 10 doses (FIG. 7)
Procedure: as §2, §3, §4

[3] = due to deamination to 5-aza-2′-deoxyuridine; cited from earlier work
[4] = DU145 cells treated with 500 nM DAC (FIG. 5)

Row | Reinjection Stability (5 Days) (5° C.) (%) ([1]; High QC) | Digest Buffers Stability (−70° C.) (35 Days) (%) ([1]; High QC) | Reinjection Stability (5 Days) (5° C.) (%) ([1]; Low QC) | Digest Buffers Stability (−70° C.) (35 Days) (%) ([1]; Low QC) | Stock Stability (27 Days) (%) [1] | Structure (SMILES) | concentration of 2dC in digested genomic DNA [2, 4] | concentration of 5mC in digested genomic DNA [2, 4] | concentration of DAC in digested genomic DNA [2, 4] | amount of DAC per thousand 2dC versus initial treatment dose ([2]; increasing doses of DAC, 48 hours, three replicates (FIG. 6)) | 5mC content (per thousand 2dC) relative to DAC incorporation (colon tissue) | DAC incorporation into genomic DNA (DAC per thousand 2dC) (colon tissue) | DAC incorporation into genomic DNA (DAC per thousand 2dC) (whole bone marrow cells) | plasma half-life [3]
1 | 106.0% | 99% | 108.0% | 107.2% | 98.7% | Nc1ccn([C@H]2C[C@H](O)[C@@H](CO)O2)c(=O)n1 [2dC, 2′-deoxycytidine] | – | – | – | – | – | – | – | –
2 | 92.5% | 103.2% | 88.6% | 101.8% | 94.8% | Nc1ncn([C@H]2C[C@H](O)[C@@H](CO)O2)c(=O)n1 [DAC, 5-aza-2′-deoxycytidine] | 1250 ng/mL | 27.4 ng/mL | 2.8 ng/mL | strong linear correlation | inversely correlated with DAC incorporation | dose responsive increase in incorporation | dose responsive increase in incorporation | 15 to 25 min
